Laboratory results taken from ChEMBL document CHEMBL3862033 (J Med Chem, 2016).

Columns and labels:
[1] = target: T1, 5-hydroxytryptamine receptor 1A (Homo sapiens) (UniProt P08908); test: Displacement of [3H]WAY100635 from human 5-HT1AR expressed in CHO cell membranes at 10 uM incubated for 90 mins under dark condition by microbeta scintillation counting method relative to control
T1 sequence (whole entry): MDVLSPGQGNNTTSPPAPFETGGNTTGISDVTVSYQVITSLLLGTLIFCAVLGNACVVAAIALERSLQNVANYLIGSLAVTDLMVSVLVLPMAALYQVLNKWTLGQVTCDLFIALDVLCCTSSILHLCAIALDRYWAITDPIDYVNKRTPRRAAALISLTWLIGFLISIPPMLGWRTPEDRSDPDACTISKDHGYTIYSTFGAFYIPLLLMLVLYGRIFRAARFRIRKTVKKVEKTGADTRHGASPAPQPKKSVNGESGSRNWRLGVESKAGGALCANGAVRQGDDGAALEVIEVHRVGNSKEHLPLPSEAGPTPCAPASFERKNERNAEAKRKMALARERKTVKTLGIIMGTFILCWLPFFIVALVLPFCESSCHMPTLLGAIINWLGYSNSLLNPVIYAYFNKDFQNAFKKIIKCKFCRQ

[2] = target: 5-hydroxytryptamine receptor 1B (Homo sapiens) (UniProt P28222); test: Displacement of [3H]5-CT from human 5-HT1BR expressed in HEK cell membranes at 10 uM incubated for 90 mins under dark condition by microbeta scintillation counting method relative to control; conditions: HEK293
5-hydroxytryptamine receptor 1B (Homo sapiens), sequence (P28222 whole entry): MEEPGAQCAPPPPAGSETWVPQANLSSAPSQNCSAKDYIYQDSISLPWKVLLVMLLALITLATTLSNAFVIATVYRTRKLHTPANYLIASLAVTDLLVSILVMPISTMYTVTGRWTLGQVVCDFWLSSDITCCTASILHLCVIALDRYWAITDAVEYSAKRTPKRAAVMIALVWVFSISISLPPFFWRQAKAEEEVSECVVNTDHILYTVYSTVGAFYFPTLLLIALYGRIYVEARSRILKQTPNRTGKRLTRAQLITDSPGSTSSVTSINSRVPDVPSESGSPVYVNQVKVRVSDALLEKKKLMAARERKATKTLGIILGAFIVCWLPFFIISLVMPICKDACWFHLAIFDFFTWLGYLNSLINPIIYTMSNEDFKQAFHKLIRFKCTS

[3] = target: T2, Adenosine receptor A1 (Homo sapiens, UniProt P30542); test: Displacement of [3H]N6-phenylisopropyladenosine from recombinant human A1AR expressed in CHO cell membranes after 60 mins by liquid scintillation counting method
T2 sequence (P30542 whole entry): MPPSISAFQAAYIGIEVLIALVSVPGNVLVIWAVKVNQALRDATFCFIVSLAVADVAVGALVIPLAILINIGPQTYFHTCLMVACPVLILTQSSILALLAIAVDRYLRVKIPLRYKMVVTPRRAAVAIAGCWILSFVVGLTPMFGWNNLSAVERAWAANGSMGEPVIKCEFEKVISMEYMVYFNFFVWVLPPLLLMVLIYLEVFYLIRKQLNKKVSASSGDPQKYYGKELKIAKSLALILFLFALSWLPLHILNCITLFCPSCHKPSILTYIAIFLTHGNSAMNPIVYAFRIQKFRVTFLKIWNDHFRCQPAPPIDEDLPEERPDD

[4] = target: 5-hydroxytryptamine receptor 7 (Homo sapiens) (UniProt P34969); test: Displacement of [3H]LSD from human 5-HT7A receptor expressed in HEK cell membranes at 10 uM incubated for 90 mins under dark condition by microbeta scintillation counting method relative to control; conditions: HEK293
5-hydroxytryptamine receptor 7 (Homo sapiens), sequence (P34969 whole entry): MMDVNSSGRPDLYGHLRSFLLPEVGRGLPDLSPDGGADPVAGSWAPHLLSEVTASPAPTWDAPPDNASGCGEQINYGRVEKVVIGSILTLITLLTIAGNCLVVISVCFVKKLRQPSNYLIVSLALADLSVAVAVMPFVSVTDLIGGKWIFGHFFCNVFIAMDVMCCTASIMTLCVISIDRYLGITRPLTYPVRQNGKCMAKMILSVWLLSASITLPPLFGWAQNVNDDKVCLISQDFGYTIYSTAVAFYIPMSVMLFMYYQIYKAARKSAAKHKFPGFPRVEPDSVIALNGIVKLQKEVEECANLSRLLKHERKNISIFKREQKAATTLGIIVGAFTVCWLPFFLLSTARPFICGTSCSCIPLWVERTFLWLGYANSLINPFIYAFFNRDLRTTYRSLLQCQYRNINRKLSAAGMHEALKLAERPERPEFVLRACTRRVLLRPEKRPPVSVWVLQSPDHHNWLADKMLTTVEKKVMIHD

[5] = target: T3, 5-hydroxytryptamine receptor 2A (Homo sapiens, UniProt P28223); test: Displacement of [3H]ketanserin from human 5-HT2A receptor expressed in HEK-T cell membranes at 10 uM incubated for 90 mins under dark condition by microbeta scintillation counting method relative to control
T3 sequence (P28223 whole entry): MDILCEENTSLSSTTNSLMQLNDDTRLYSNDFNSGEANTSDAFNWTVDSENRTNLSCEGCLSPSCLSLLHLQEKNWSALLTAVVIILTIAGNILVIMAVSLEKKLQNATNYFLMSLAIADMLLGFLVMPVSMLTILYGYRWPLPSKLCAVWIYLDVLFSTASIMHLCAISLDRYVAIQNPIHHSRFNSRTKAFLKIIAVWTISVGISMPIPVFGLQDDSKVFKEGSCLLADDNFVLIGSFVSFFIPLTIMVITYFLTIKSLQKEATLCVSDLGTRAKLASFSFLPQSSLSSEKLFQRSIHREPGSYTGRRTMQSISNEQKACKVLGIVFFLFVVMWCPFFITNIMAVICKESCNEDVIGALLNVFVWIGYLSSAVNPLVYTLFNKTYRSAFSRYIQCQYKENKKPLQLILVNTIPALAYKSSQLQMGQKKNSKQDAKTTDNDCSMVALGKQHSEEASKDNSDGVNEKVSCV

[6] = target: 5-hydroxytryptamine receptor 1D (Homo sapiens) (UniProt P28221); test: Displacement of [3H]5-CT from human 5-HT1D receptor expressed in HEK-T cell membranes at 10 uM incubated for 90 mins under dark condition by microbeta scintillation counting method relative to control
5-hydroxytryptamine receptor 1D (Homo sapiens), sequence (P28221 whole entry): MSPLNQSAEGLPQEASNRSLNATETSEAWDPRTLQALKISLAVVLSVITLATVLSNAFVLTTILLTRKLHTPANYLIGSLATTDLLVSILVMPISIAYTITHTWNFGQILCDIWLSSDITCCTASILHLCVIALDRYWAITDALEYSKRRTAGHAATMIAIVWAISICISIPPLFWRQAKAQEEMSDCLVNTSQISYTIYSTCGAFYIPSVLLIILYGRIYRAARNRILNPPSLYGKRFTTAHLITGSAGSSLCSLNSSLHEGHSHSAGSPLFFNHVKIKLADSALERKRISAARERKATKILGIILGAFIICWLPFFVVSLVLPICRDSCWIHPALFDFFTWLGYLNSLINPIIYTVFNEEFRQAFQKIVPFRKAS

[7] = target: 5-hydroxytryptamine receptor 5A (Homo sapiens) (UniProt P47898); test: Displacement of [3H]LSD from human 5-HT5A receptor expressed in Flp-In-CHO cell membranes incubated for 90 mins under dark condition by microbeta scintillation counting method relative to control; set-up: concentration or dose not given beside the values
5-hydroxytryptamine receptor 5A (Homo sapiens), sequence (P47898 whole entry): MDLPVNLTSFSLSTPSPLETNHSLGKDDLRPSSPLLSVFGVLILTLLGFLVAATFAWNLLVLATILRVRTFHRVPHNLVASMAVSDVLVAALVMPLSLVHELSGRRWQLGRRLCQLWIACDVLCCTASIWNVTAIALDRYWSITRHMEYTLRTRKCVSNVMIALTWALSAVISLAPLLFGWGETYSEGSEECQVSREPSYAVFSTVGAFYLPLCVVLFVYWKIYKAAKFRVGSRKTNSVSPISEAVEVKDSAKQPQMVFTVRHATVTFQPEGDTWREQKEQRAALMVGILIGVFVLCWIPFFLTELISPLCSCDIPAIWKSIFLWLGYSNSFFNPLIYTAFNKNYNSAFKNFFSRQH

[8] = target: T4, 5-hydroxytryptamine receptor 2C (Homo sapiens) (UniProt P28335); test: Displacement of [3H]mesulergine from human 5-HT2CR expressed in Flp-In HEK cell membranes at 10 uM incubated for 90 mins under dark condition by microbeta scintillation counting method relative to control; conditions: HEK293
T4 sequence (whole entry): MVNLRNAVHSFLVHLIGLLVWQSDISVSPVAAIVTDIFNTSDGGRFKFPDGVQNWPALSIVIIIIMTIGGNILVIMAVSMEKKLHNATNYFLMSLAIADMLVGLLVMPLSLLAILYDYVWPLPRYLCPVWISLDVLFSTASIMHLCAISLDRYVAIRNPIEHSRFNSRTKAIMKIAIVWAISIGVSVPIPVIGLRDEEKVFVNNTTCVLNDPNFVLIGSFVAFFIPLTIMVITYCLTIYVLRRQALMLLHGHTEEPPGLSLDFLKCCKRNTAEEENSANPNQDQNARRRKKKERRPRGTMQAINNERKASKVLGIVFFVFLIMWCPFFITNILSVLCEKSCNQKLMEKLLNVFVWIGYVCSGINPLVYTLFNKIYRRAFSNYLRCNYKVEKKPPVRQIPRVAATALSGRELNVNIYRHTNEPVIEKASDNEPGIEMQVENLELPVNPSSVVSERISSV

[9] = target: 5-hydroxytryptamine receptor 1E (Homo sapiens) (UniProt P28566); test: Displacement of [3H]5-HT from human 5-HT1E receptor expressed in HEK cell membranes at 10 uM incubated for 90 mins under dark condition by microbeta scintillation counting method relative to control; conditions: HEK293
5-hydroxytryptamine receptor 1E (Homo sapiens), sequence (P28566 whole entry): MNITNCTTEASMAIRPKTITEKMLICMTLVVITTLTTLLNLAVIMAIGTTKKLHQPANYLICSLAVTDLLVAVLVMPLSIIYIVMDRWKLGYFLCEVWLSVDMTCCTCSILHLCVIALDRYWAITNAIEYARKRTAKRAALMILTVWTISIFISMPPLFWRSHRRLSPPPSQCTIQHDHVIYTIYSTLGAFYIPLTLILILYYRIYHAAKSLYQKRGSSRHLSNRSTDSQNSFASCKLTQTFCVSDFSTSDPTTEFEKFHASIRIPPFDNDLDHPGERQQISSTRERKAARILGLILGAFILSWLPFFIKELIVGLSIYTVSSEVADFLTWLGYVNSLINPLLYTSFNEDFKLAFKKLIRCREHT

[10] = target: 5-hydroxytryptamine receptor 4 (Homo sapiens) (UniProt Q13639); test: Displacement of [3H]GR113808 from human 5-HT4 receptor at 10 uM incubated for 90 mins under dark condition by microbeta scintillation counting method relative to control
5-hydroxytryptamine receptor 4 (Homo sapiens), sequence (Q13639 whole entry): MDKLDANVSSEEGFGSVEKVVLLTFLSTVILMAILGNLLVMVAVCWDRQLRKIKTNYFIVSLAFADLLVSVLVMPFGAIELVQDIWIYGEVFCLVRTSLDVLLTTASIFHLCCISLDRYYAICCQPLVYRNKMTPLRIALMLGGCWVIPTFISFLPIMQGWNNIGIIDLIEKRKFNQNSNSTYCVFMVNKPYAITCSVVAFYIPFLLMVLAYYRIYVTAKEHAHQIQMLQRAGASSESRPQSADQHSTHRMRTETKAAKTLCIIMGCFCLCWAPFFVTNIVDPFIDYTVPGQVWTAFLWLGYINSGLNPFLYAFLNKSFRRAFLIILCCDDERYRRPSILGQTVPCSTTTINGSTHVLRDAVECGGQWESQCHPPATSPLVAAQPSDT

[11] = target: T5, 5-hydroxytryptamine receptor 3A (Homo sapiens) (UniProt P46098); test: Displacement of [3H]GR65630 from human 5-HT3 receptor expressed in HEK-T cell membranes at 10 uM incubated for 90 mins under dark condition by microbeta scintillation counting method relative to control
T5 sequence (whole entry): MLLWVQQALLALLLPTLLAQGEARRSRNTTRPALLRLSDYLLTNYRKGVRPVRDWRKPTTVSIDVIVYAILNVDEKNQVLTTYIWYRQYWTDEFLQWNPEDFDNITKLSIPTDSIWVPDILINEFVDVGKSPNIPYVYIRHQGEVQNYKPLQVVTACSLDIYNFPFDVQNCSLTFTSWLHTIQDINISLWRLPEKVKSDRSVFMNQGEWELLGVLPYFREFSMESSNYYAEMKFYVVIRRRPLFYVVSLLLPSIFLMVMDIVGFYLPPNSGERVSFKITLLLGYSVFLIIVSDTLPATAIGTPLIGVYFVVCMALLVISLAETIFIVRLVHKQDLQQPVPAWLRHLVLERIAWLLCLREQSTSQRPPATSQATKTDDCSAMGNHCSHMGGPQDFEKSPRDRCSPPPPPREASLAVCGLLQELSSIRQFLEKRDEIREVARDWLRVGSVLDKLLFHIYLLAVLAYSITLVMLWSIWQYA

[12] = target: T3, 5-hydroxytryptamine receptor 2A; test: Displacement of [3H]ketanserin from human 5-HT2A receptor expressed in HEK-T cell membranes incubated for 90 mins under dark condition by microbeta scintillation counting method
[13] = target: T6, 5-hydroxytryptamine receptor 2B (Homo sapiens, UniProt P41595); conditions: HEK293, at 10 µM
T6 sequence (P41595 whole entry): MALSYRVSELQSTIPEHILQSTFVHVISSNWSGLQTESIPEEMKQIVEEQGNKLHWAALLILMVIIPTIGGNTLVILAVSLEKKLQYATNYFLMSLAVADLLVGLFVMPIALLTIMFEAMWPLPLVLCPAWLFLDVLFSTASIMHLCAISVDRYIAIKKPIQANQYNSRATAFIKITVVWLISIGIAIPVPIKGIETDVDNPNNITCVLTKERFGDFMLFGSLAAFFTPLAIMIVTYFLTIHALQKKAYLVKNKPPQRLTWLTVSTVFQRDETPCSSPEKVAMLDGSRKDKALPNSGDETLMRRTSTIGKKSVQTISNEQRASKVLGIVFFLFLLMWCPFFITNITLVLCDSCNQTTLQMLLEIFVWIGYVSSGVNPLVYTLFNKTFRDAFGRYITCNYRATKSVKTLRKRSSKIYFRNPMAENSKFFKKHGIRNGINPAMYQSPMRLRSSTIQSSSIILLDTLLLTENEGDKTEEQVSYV

[14] = target: 5-hydroxytryptamine receptor 6 (Homo sapiens) (UniProt P50406); test: Displacement of [3H]LSD from human 5-HT6 receptor expressed in HEK cell membranes at 10 uM incubated for 90 mins under dark condition by microbeta scintillation counting method relative to control; conditions: HEK293
5-hydroxytryptamine receptor 6 (Homo sapiens), sequence (P50406 whole entry): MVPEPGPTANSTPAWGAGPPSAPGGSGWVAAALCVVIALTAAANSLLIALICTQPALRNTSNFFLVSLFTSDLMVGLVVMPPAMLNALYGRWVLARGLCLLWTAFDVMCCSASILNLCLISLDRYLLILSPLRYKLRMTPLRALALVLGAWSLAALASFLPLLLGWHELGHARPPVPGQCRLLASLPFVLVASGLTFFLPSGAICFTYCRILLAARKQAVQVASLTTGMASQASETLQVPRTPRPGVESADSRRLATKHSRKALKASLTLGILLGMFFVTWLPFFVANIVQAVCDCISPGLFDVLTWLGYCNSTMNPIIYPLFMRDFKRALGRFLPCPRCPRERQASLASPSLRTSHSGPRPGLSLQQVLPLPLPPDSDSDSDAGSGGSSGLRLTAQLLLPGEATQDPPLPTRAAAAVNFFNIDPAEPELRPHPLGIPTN

[15] = target: T7, 5-hydroxytryptamine receptor 2C (Homo sapiens, UniProt P28335); test: Displacement of [3H]mesulergine from human 5-HT2CR expressed in Flp-In HEK cell membranes incubated for 90 mins under dark condition by microbeta scintillation counting method; set-up: species or system HEK293
T7 sequence (P28335 whole entry): T4 sequence (whole entry)

[16] = target: Adenosine receptor A2a (Homo sapiens, UniProt P29274); test: Displacement of [3 H]2-[p-(2-carboxyethyl)phenyl-ethylamino]-5'-N-ethylcarboxamidoadenosine from recombinant human adenosine receptor A2A expressed in HEK293 cell membranes at 10 uM after 60 mins by liquid scintillation counting method relative to control
Adenosine receptor A2a, sequence (P29274 whole entry): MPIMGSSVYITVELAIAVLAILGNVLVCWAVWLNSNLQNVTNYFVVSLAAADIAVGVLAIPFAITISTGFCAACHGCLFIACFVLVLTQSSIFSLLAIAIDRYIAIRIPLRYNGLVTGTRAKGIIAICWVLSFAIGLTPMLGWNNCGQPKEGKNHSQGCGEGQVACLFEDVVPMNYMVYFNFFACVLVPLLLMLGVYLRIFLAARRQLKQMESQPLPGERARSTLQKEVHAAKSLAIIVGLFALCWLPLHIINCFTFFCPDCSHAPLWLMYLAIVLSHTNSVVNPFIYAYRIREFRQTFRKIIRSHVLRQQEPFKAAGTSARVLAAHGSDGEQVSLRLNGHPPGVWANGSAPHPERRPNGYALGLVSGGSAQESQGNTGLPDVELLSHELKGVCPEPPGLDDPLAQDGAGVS

[17] = target: T8, Adenosine receptor A3 (Homo sapiens, UniProt P0DMS8); test: Displacement of [125l]N 6-(4-amino-3-iodobenzyl)adenosine-5'-N-methyluronamide from recombinant human A3AR expressed in CHO cell membranes after 60 mins by gamma counting method
T8 sequence (P0DMS8 whole entry): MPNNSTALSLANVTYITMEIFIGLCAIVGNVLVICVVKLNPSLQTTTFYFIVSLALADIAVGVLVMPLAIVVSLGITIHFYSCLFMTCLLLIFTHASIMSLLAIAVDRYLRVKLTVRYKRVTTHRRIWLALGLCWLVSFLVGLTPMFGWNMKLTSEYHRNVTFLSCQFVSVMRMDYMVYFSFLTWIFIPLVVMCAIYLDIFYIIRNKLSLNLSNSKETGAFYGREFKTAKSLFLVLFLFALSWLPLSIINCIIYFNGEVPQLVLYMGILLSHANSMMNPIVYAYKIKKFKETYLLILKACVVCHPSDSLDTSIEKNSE

[18] = target: T6, 5-hydroxytryptamine receptor 2B; test: biochemical; format: cell-based, HEK293

Structure (SMILES) | inhibition [8] | inhibition [13] | inhibition [16] | Ki [18] | inhibition [1] | inhibition [2] | Ki [3] | inhibition [4] | inhibition [5] | inhibition [6] | inhibition [7] | inhibition [9] | inhibition [10] | inhibition [11] | Ki [12] | inhibition [14] | Ki [15] | Ki [17]
Nc1nc(Cl)nc2c1ncn2[C@@H]1O[C@H](CO)[C@@H](O)[C@H]1O | < 10% | < 10% | – | – | < 50% | < 50% | 2.8 nM | < 50% | 46% | < 50% | < 50% | < 50% | < 50% | < 50% | > 10000 nM | < 50% | – | –
CNC(=O)[C@H]1O[C@@H](n2cnc3c(NCc4cccc(I)c4)ncnc32)[C@H](O)[C@@H]1O [IB-MECA] | > 50% | > 50% | – | – | < 50% | < 50% | – | < 50% | < 10% | < 50% | < 50% | < 50% | < 50% | < 50% | > 10000 nM | < 50% | – | –
CC(C)[C@H](Nc1nc(Cl)nc2c1ncn2[C@H]1[C@H](O)[C@H](O)[C@]2(CO)C[C@H]12)C1CC1 | > 50% | – | – | – | < 50% | < 50% | 104 nM | < 50% | < 10% | < 50% | < 50% | < 50% | < 50% | < 50% | > 10000 nM | < 50% | 672 nM | 3450 nM
CC(C)[C@@H](Nc1nc(Cl)nc2c1ncn2[C@H]1[C@H](O)[C@H](O)[C@]2(CO)C[C@H]12)C1CC1 | > 50% | – | – | – | < 50% | < 50% | 103 nM | < 50% | < 10% | < 50% | < 50% | < 50% | < 50% | < 50% | > 10000 nM | < 50% | 190 nM | 1240 nM
O[C@@H]1[C@H](O)[C@@H]2C[C@@H]2[C@H]1n1cnc2c(NC(C3CC3)C3CC3)nc(Cl)nc21 | – | – | – | 675 nM | – | – | – | – | < 10% | – | – | – | – | – | > 10000 nM | – | – | –

Further lines, with some results ahead:

inhibition [8] | inhibition [13] | inhibition [16] | Ki [18] | Structure (SMILES) | inhibition [1] | inhibition [2] | Ki [3] | inhibition [4] | inhibition [5] | inhibition [6] | inhibition [7] | inhibition [9] | inhibition [10] | inhibition [11] | Ki [12] | inhibition [14] | Ki [15] | Ki [17]
> 50% | – | < 10% | – | O=C(O)[C@@]12C[C@@H]1[C@@H](n1cnc3c(NC(C4CC4)C4CC4)nc(Cl)nc31)[C@H](O)[C@@H]2O | < 50% | < 50% | – | < 50% | < 10% | < 50% | < 50% | < 50% | < 50% | < 50% | > 10000 nM | < 50% | 2580 nM | 5980 nM
11% | 38% | – | – | OC[C@H]1O[C@@H](n2cnc3c(NC(C4CC4)C4CC4)ncnc32)[C@H](O)[C@@H]1O | < 50% | < 50% | – | < 50% | < 10% | < 50% | < 50% | < 50% | < 50% | < 50% | > 10000 nM | < 50% | – | –
> 50% | – | – | 2770 nM | CNC(=O)[C@H]1O[C@@H](n2cnc3c(NCc4cccc(I)c4)nc(Cl)nc32)[C@H](O)[C@@H]1O [NAMODENOSON] | – | – | – | – | 30% | – | – | – | – | – | > 10000 nM | – | 10000 nM | –
< 10% | > 50% | – | > 10000 nM | Nc1nc(Cl)nc2c1ncn2[C@H]1[C@H](O)[C@H](O)[C@]2(CO)C[C@H]12 | < 50% | < 50% | – | < 50% | < 10% | < 50% | < 50% | < 50% | < 50% | < 50% | > 10000 nM | < 50% | – | –
< 10% | < 10% | – | – | CNC(=O)[C@H]1O[C@@H](n2cnc3c(N)ncnc32)[C@H](O)[C@@H]1O | < 50% | < 50% | – | < 50% | < 10% | < 50% | < 50% | < 50% | < 50% | < 50% | > 10000 nM | < 50% | – | –
